According to patent US12458021B2, “Microbiocidal derivatives” (SYNGENTA CROP PROTECTION AG, priority 2019, dated 2025):

Columns and labels:
[1] = tested on: Phaeosphaeria nodorum (Septoria nodorum); test: Phaeosphaeria nodorum (Septoria nodorum) / wheat / leaf disc preventative (glume blotch); format: in vivo; conditions: Parastagonospora nodorum, foliar, wheat leaf segments cv. Kanzler, inoculated 2 days after application, assessed 5-7 days after application, read-out: control of Phaeosphaeria nodorum (percent disease control compared to untreated)
Experimental: Example B6: Phaeosphaeria nodorum (Septoria nodorum)/Wheat/Leaf Disc Preventative (Glume Blotch) Wheat leaf segments cv. Kanzler are placed on agar in a multiwell plate (24-well format) and sprayed with the formulated test compound diluted in water. The leaf disks are inoculated with a spore suspension of the fungus 2 days after application. The inoculated test leaf disks are incubated at 20° C. and 75% rh under a light regime of 12 h light/12 h darkness in a climate cabinet and the activity of a compound is assessed as percent disease control compared to untreated when an appropriate level of disease damage appears in untreated check leaf disks (5-7 days after application). […] […]-190.

[2] = tested on: Blumeria graminis f. sp. tritici (Erysiphe graminis f. sp. tritici); test: Blumeria graminis f. sp. tritici / wheat / leaf disc preventative (powdery mildew on wheat); format: in vivo; conditions: foliar, wheat leaf segments cv. Kanzler, inoculated 1 day after application, assessed 6-8 days after application, read-out: control of Blumeria graminis f. sp. tritici (percent disease control compared to untreated)
Source text: Example B4: Blumeria graminis f. sp. tritici (Erysiphe graminis f. sp. tritici)/Wheat/Leaf Disc Preventative (Powdery Mildew on Wheat) Wheat leaf segments cv. Kanzler are placed on agar in a multiwell plate (24-well format) and sprayed with the formulated test compound diluted in water. The leaf disks are inoculated by shaking powdery mildew infected plants above the test plates 1 day after application. […] […]-192.

[3] = tested on: Mycosphaerella graminicola (Septoria tritici); test: Mycosphaerella graminicola (Septoria tritici) / liquid culture (Septoria blotch); format: cell-based; conditions: Zymoseptoria tritici, PDB potato dextrose broth, 24° C., 4-5 days after application, read-out: control of Mycosphaerella graminicola (inhibition of growth, photometric)
Procedure, shortened: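 Fungal growth inhibition was read photometrically 4-5 days after application. Compound was dosed from a DMSO solution into liquid cultures of spores in potato dextrose broth, incubated at 24° C.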

Pyrenophora teres = Pyrenophora teres / barley / leaf disc preventative (net blotch); format: in vivo; conditions: foliar, barley leaf segments cv. Hasso, inoculated 2 days after application, assessed 5-7 days after application, read-out: control of Pyrenophora teres (disease control compared to untreated)
Experimental: Example B13: Pyrenophora teres/Barley/Leaf Disc Preventative (Net Blotch) Barley leaf segments cv. Hasso are placed on agar in a multiwell plate (24-well format) and sprayed with the formulated test compound diluted in water. The leaf segments are inoculated with a spore suspension of the fungus 2 days after application. The inoculated leaf segments are incubated at 20° C. and 65% rh under a light regime of 12 h light/12 h darkness in a climate cabinet and the activity of a compound is assessed as disease control compared to untreated when an appropriate level of disease damage appears in untreated check leaf segments (5-7 days after application). […] […]-185.

[4] = tested on: Puccinia recondita f. sp. tritici; test: Puccinia recondita f. sp. tritici / wheat / leaf disc preventative (brown rust); format: in vivo; conditions: foliar, wheat leaf segments cv. Kanzler, inoculated 1 day after application, assessed 7-9 days after application, read-out: control of Puccinia recondita f. sp. tritici, preventative (percent disease control compared to untreated)
Procedure, shortened: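 Wheat leaf segments (cv. Kanzler) on agar were sprayed with formulated compound, then inoculated with spores 1 day later. Segments were incubated at 19 °C, 75% rh with 12 h light/dark. Percent disease control versus untreated was scored 7–9 days after application.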

[5] = tested on: Monographella nivalis (Microdochium nivale); test: Monographella nivalis (Microdochium nivale) / liquid culture (foot rot cereals); format: cell-based; conditions: PDB potato dextrose broth, 24° C., 4-5 days after application, read-out: control of Monographella nivalis (inhibition of growth, photometric)
Procedure, shortened: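 Growth inhibition measured by photometry 4-5 days post-application at 24° C. Compound was dispensed as DMSO solution, then PDB broth containing conidia from cryogenic storage was added.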

[6] = tested on: Glomerella lagenarium (Colletotrichum lagenarium); test: Glomerella lagenarium (Colletotrichum lagenarium) / liquid culture (anthracnose); format: cell-based; conditions: Colletotrichum orbiculare, PDB potato dextrose broth, 24° C., 3-4 days after application, read-out: control of Glomerella lagenarium (inhibition of growth, photometric)
Procedure, shortened: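 Fungal growth inhibition measured photometrically 3-4 days post-application at 24° C. Spores were mixed directly into potato dextrose broth and dispensed onto test compound supplied in DMSO.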

[7] = tested on: Magnaporthe grisea (Pyricularia oryzae); test: whole plant or invertebrate; format: in vivo; conditions: foliar, read-out: control of Magnaporthe grisea (percent disease control compared to untreated)
[8] = tested on: Mycosphaerella arachidis (Cercospora arachidicola); test: Mycosphaerella arachidis (Cercospora arachidicola) / liquid culture (early leaf spot); format: cell-based; conditions: PDB potato dextrose broth, 24° C., 4-5 days after application, read-out: control of Mycosphaerella arachidis (inhibition of growth, photometric)
Experimental: Example B8: Mycosphaerella arachidis (Cercospora arachidicola)/Liquid Culture (Early Leaf Spot) Conidia of the fungus from cryogenic storage are directly mixed into nutrient broth (PDB potato dextrose broth). After placing a (DMSO) solution of test compound into a microtiter plate (96-well format), the nutrient broth containing the fungal spores is added. The test plates are incubated at 24° C. and the inhibition of growth is determined photometrically 4-5 days after application. […] […]-180.

Alternaria solani = Alternaria solani / tomato / leaf disc (early blight); format: in vivo; conditions: foliar, tomato leaf disks cv. Baby, inoculated 2 days after application, assessed 5-7 days after application, read-out: control of Alternaria solani (percent disease control compared to untreated)
Experimental: Example B1: Alternaria solani/Tomato/Leaf Disc (Early Blight) Tomato leaf disks cv. Baby are placed on agar in multiwell plates (24-well format) and sprayed with the formulated test compound diluted in water. The leaf disks are inoculated with a spore suspension of the fungus 2 days after application. The inoculated leaf disks are incubated at 23° C./21° C. […] […]-185.

[9] = tested on: Botryotinia fuckeliana (Botrytis cinerea); test: Botryotinia fuckeliana (Botrytis cinerea) / liquid culture (gray mould); format: cell-based; conditions: Vogels broth, 24° C., 3-4 days after application, read-out: control of Botryotinia fuckeliana (inhibition of growth, photometric)
Experimental: Example B2: Botryotinia fuckeliana (Botrytis cinerea)/Liquid Culture (Gray Mould) Conidia of the fungus from cryogenic storage are directly mixed into nutrient broth (Vogels broth). After placing a (DMSO) solution of test compound into a microtiter plate (96-well format), the nutrient broth containing the fungal spores is added. The test plates are incubated at 24° C. and the inhibition of growth is determined photometrically 3-4 days after application. […] […]-190.

COc1ccc(Nc2cc(F)cc(F)c2)nc1C(=O)NCC1(C(F)(F)F)CC1 [Compound P-62, 6-(3,5-difluoroanilino)-3-methoxy-N-[[1-(trifluoromethyl)cyclopropyl]methyl]pyridine-2-carboxamide]
≥ 80%: pest or weed control at 200 ppm [1] | pest or weed control at 200 ppm [2] | inhibition at 20 ppm [3] | pest or weed control at 200 ppm (Pyrenophora teres) | pest or weed control at 200 ppm [4] | inhibition at 20 ppm [5] | inhibition at 20 ppm [6] | pest or weed control at 200 ppm [7] | inhibition at 20 ppm [8] | pest or weed control at 200 ppm (Alternaria solani)

CC1(NC(=O)c2cccc(Nc3cc(F)cc(F)c3)n2)CCCC1 [Compound P-119, 6-(3,5-difluoroanilino)-N-(1-methylcyclopentyl)pyridine-2-carboxamide]
≥ 80%: inhibition at 20 ppm [9] | inhibition at 20 ppm [3] | pest or weed control at 200 ppm [4] | inhibition at 20 ppm [5] | inhibition at 20 ppm [6] | pest or weed control at 200 ppm [7]

Cc1ccc(Nc2cc(F)cc(F)c2)nc1C(=O)NC1CCC1(C)C (stereo not shown) [Compound P-175, 6-(3,5-difluoroanilino)-N-(2,2-dimethylcyclobutyl)-3-methyl-pyridine-2-carboxamide]
≥ 80%: inhibition at 20 ppm [9] | inhibition at 20 ppm [3] | inhibition at 20 ppm [5] | inhibition at 20 ppm [6]

CC1(NC(=O)c2cccc(Nc3cc(F)nc(F)c3)n2)CCCC1 [Compound P-120, 6-[(2,6-difluoro-4-pyridyl)amino]-N-(1-methylcyclopentyl)pyridine-2-carboxamide]
≥ 80%: inhibition at 20 ppm [9] | inhibition at 20 ppm [3] | pest or weed control at 200 ppm [4] | inhibition at 20 ppm [5] | inhibition at 20 ppm [6] | pest or weed control at 200 ppm [7]

COc1ccc(Nc2cc(F)cc(Cl)c2)nc1C(=O)NCC(C)(C)C [Compound P-134, 6-(3-chloro-5-fluoro-anilino)-N-(2,2-dimethylpropyl)-3-methoxy-pyridine-2-carboxamide]
≥ 80%: inhibition at 20 ppm [9] | pest or weed control at 200 ppm [2] | inhibition at 20 ppm [3] | pest or weed control at 200 ppm (Pyrenophora teres) | inhibition at 20 ppm [5] | inhibition at 20 ppm [6]

COc1ccc(Nc2cc(F)cc(F)c2)nc1C(=O)NCC(C)(C)C [Compound P-22, 6-(3,5-difluoroanilino)-N-(2,2-dimethylpropyl)-3-methoxy-pyridine-2-carboxamide]
≥ 80%: pest or weed control at 200 ppm [1] | pest or weed control at 200 ppm [2] | inhibition at 20 ppm [3] | pest or weed control at 200 ppm (Pyrenophora teres) | pest or weed control at 200 ppm [4] | inhibition at 20 ppm [5] | inhibition at 20 ppm [6] | pest or weed control at 200 ppm [7] | inhibition at 20 ppm [8] | pest or weed control at 200 ppm (Alternaria solani)

COc1ccc(Nc2cccc(Cl)c2)nc1C(=O)NC(C)(C)C [Compound P-155, N-tert-butyl-6-(3-chloroanilino)-3-methoxy-pyridine-2-carboxamide]
≥ 80%: inhibition at 20 ppm [9] | inhibition at 20 ppm [3] | pest or weed control at 200 ppm (Pyrenophora teres) | pest or weed control at 200 ppm [4] | inhibition at 20 ppm [5] | inhibition at 20 ppm [6] | pest or weed control at 200 ppm [7]

COc1ccc(Nc2cc(F)cc(F)c2)nc1C(=O)NC1CCC1Oc1ccc(F)cc1 (stereo not shown) [Compound P-45, 6-(3,5-difluoroanilino)-N-[2-(4-fluorophenoxy)cyclobutyl]-3-methoxy-pyridine-2-carboxamide]
≥ 80%: pest or weed control at 200 ppm [1] | pest or weed control at 200 ppm [2] | inhibition at 20 ppm [3] | pest or weed control at 200 ppm (Pyrenophora teres) | pest or weed control at 200 ppm [4] | inhibition at 20 ppm [5] | inhibition at 20 ppm [6] | pest or weed control at 200 ppm [7] | inhibition at 20 ppm [8] | pest or weed control at 200 ppm (Alternaria solani)

COc1ccc(Nc2cc(F)nc(F)c2)nc1C(=O)NC(C)(C)C(C)C [Compound P-173, 6-[(2,6-difluoro-4-pyridyl)amino]-3-methoxy-N-(1,1,2-trimethylpropyl)pyridine-2-carboxamide]
≥ 80%: inhibition at 20 ppm [9] | pest or weed control at 200 ppm [2] | inhibition at 20 ppm [3] | pest or weed control at 200 ppm [4] | inhibition at 20 ppm [5] | inhibition at 20 ppm [6] | pest or weed control at 200 ppm (Alternaria solani)

COc1ccc(Nc2ccc(C)c(F)c2)nc1C(=O)NCC(C)(C)C [Compound P-142, N-(2,2-dimethylpropyl)-6-(3-fluoro-4-methyl-anilino)-3-methoxy-pyridine-2-carboxamide]
≥ 80%: inhibition at 20 ppm [9] | inhibition at 20 ppm [6]

COc1ccc(Nc2cc(F)cc(F)c2)nc1C(=O)NC(C)C(C)(C)C (stereo not shown) [Compound P-170, 6-(3,5-difluoroanilino)-3-methoxy-N-(1,2,2-trimethylpropyl)pyridine-2-carboxamide]
≥ 80%: inhibition at 20 ppm [9] | pest or weed control at 200 ppm [2] | inhibition at 20 ppm [3] | inhibition at 20 ppm [5] | inhibition at 20 ppm [6] | pest or weed control at 200 ppm (Alternaria solani)

COc1ccc(NCC(O)CO)nc1C(=O)NCC(C)(C)C (stereo not shown) [Compound P-42, 6-(2,3-dihydroxypropylamino)-N-(2,2-dimethylpropyl)-3-methoxy-pyridine-2-carboxamide]
≥ 80%: inhibition at 20 ppm [9] | inhibition at 20 ppm [6]

COc1ccc(Nc2ccc(C)c(Cl)c2)nc1C(=O)NCC(C)(C)C [Compound P-132, 6-(3-chloro-4-methyl-anilino)-N-(2,2-dimethylpropyl)-3-methoxy-pyridine-2-carboxamide]
≥ 80%: inhibition at 20 ppm [9] | inhibition at 20 ppm [3] | inhibition at 20 ppm [5] | inhibition at 20 ppm [6]

COc1ccc(Nc2ccc(C)c(Cl)c2)nc1C(=O)NC(C)(C)C [Compound P-151, N-tert-butyl-6-(3-chloro-4-methyl-anilino)-3-methoxy-pyridine-2-carboxamide]
≥ 80%: inhibition at 20 ppm [9] | inhibition at 20 ppm [3] | inhibition at 20 ppm [5] | inhibition at 20 ppm [6] | pest or weed control at 200 ppm [7]
